Laboratory results from patent US11401255B2, “Small molecule activators of Parkin enzyme function” (Mayo Foundation for Medical Education and Research, priority 2016, dated 2022).

Tests used:
FLAG-Parkin C431S = FLAG-Parkin C431S (Homo sapiens (Human), UniProt O60260, C431S); experiment: Ub-charging of FLAG-Parkin C431S (western blot); format: cell-based; settings: 5 μM or 1 μM, 2 h before 3.5 μM CCCP
Protocol: Another measure of Parkin activation is Ub charging of Parkin. Parkin receives Ub from an E2 enzyme to transfer it to a substrate protein. The Ub is bound by Parkin C431 in an unstable thioester bond. A serine substitution of this amino acid (C431S) leads to a stable oxyester bond. The bound Ub can then be visualized as a band shift in Western blot experiments. HeLa 3×FLAG-Parkin C431S cells were seeded in 12-well plates and allowed to attach overnight. Cells were treated with 5 μM (top panels) or 1 μM (bottom panels) of Compounds 1, 2, 3, 4, and 31 2 h before adding CCCP for another 2 h. 10 μM CCCP was added to positive control (PC) wells whereas all other samples received a low dose concentration of 3.5 μM. Cells were harvested in boiling hot SDS lysis buffer and protein concentration was determined by BCA. Samples were split and left either untreated or were treated with NaOH as indicated. Samples were run on an 8-16% Tris-Glycine gel, blotted onto membranes and probed with antibodies against Flag and pS65-Ub. GAPDH served as a loading control. Band shift indicates Parkin binding to Ubiquitin, which is cleavable with NaOH.
Cells were harvested in RIPA buffer or NP-40 lysis buffer containing protease and phosphatase inhibitors (Complete and PhosStop, Roche Applied Science) with the exception of Parkin Ub charging experiments where preheated (95° C.) SDS lysis buffer (50 mM Tris pH 7.6, 150 mM NaCl, 1% SDS) was used. Concentration of cell lysates was determined with bicinchoninic acid (Pierce Biotechnology). For Parkin Ub charging experiments, aliquots of lysates were treated with […] for 1 h at 37° C. pH was neutralized with equinormal HCl.
Protein was subjected to SDS-PAGE using 4-20% or 8-16% Tris-Glycine gels (Invitrogen) and transferred onto polyvinylidene fluoride (PVDF) (Millipore). Membranes were incubated with primary antibodies overnight at 4° C. followed by HRP-conjugated secondary antibodies (1:10,000; Jackson ImmunoResearch Laboratories). Primary antibodies used: beta III tubulin (rabbit, 1:1000, CST, #5568, CST), FLAG (mouse, 1:250,000, Sigma, F3165), GAPDH (mouse, 1:100,000-500,000, Meridian Life science, H86504M), GST (1:10,000, Sigma, G7781), MFN1 (mouse, 1:5,000, Abcam, ab57602), MFN2 (mouse, 1:5,000, Abcam, ab56889), Parkin (mouse, 1:2,000, Cell Signaling, #4211), pSer65-Ub (rabbit, 1:15,000, in-house (Fiesel et al., EMBO Reports (2015) 16:1114-30; Fiesel et al., (2015) Autophagy 11:2125-2126)), TOM70 (rabbit, 1:5,000, Proteintech, 14528-1-AP), UBE2L3 (rabbit, 1:10,000, ProteinTech, 14415-1-AP), VDAC1 (mouse, 1:5,000, Abcam, ab14734), vinculin (mouse, 1:100,000, Sigma, V9131).
HeLa 3×FLAG-Parkin C431S cells were seeded in 6-well plates and allowed to attach overnight. Cells were treated with […] of compounds 5, 21-28, 32, 33, or 43-46 2 h before adding CCCP for another 2 h. 10 VM CCCP was added to positive control (PC) wells, 3.5 μM CCCP to compound (+) and negative control (NC) wells. […] Cells were harvested in boiling hot SDS lysis buffer and protein concentration was determined by BCA. Samples were split and left either untreated or were treated with NaOH as indicated. Samples were run on an 8-16% Tris-Glycine gel, blotted onto membranes and probed with antibodies against Flag. Vinculin served as a loading control. Band shift indicates Parkin binding to Ubiquitin, which is cleavable with NaOH (FIG. 21).

[1] = system: Salmonella typhimurium and Escherichia coli tester strains; experiment: Bacterial reverse mutation assay (Ames Test), all tester strains; settings: for mutagenic potential for the tester strains: 50, 100 and 200 μM; for precipitate in strain-compound-GM medium mixture: final concentration 200 μM
From the text: (§1) The test used amino acid-dependent strains of Salmonella typhimurium and Escherichia coli to detect point mutations which involved substitution, addition or deletion of one or a few DNA base pairs. Point mutations were introduced in the histidine (Salmonella typhimurium) or the tryptophan (Escherichia coli) operon, making the tester strains incapable of producing these amino acids. The test detected mutations that revert the mutations present in the bacteria, restoring the functional capability to synthesize histidine or tryptophan. The revertant bacteria were detected by the ability to grow in the absence of the amino acid required by the parent test strain. A mutagenic potential of a tested compound was assessed by exposing these bacterial strains to different concentrations of the compounds and estimating number of revertant colonies grown in the absence (trace quantities) of the amino acid.
(§2) DMSO was used as the negative control.
(§3) For each experiment, tester strain cultures were grown overnight in Oxoid nutrient broth #2 at 37° C. with shaking at 235 rpm to a density of 1-2×10^9 colony forming units/mL (OD540˜2).
(§4) The tester strain (10 μL of night culture) was mixed with the test agent (10 µL of the DMSO stock) and GM liquid medium (30 μL). The obtained mixture was incubated at room temperature for 5 min in a sterile 1.5 mL tube. Then, to the tube was added 200 μL of molten top agar stored at 44° C. to prevent solidifying. After mixing with a pipette, the mixture was poured onto the surface of a GM agar plate (2.0 mL of GM agar per plate). After solidifying the top agar, the plate was inverted and incubated at 37° C. for 48 hours. Then, results were expressed as number of revertant colonies per plate.

TA 98 = experiment: Ames Test, strain TA 98
From the text: as §1, §2, §3, §4

CYP 2D6 = CYP 2D6 (Homo sapiens (Human), UniProt P10635); experiment: in vitro; settings: Inhibition
Protocol: CYP450 inhibition profiling provides valuable information regarding any possible drug-drug interactions for a test compound.
All experiments were performed using P450-Glo™ Assay Systems (Promega) in accordance with the manufacturer's protocols. The P450-Glo™ Assays provide a luminescent readout-based method for measuring cytochrome P450 activity. A conventional cytochrome P450 reaction was performed by incubating the cytochrome P450 and a luminogenic cytochrome P450 substrate. The substrates in the P450-Glo™ assays are derivatives of beetle luciferin. The derivatives themselves are not substrates for luciferase but are converted by cytochrome P450s to luciferin, which in turn reacts with luciferase to produce light. The amount of light produced was directly proportional to cytochrome P450 activity. All test points were performed in quadruplicates. Control membranes (without CYPs) represented the Negative control (baseline).
The following reference compounds were used to assess CYP inhibition: […]

[2] = TA 98, 200 μM, baseline = mean of negative control + SD

CYP 2D6, sequence (P10635 whole entry): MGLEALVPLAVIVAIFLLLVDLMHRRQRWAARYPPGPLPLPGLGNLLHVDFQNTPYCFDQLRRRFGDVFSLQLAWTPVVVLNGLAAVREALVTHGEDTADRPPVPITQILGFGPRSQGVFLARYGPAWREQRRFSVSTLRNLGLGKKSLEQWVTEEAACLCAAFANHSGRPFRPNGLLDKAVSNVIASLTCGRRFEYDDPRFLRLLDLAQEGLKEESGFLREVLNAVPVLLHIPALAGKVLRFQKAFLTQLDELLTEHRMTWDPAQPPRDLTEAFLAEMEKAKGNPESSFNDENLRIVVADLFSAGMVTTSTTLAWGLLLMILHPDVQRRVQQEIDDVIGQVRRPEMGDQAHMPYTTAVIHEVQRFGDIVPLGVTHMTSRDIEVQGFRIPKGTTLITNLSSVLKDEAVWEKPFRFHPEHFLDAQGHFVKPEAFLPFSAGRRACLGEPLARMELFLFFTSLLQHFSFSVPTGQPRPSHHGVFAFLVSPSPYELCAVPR

Row | Compound | Ub-charging of FLAG-Parkin C431S (WB) (FLAG-Parkin C431S) | mutagenic potential for the tester strains [1] | Fold increase (over baseline) (TA 98; TA 98, 50 μM) | Mean ± SD (TA 98; TA 98, 50 μM) | Fold increase (over baseline) (TA 98; TA 98, 100 μM) | Mean ± SD (TA 98; TA 98, 100 μM) | Mean ± SD (TA 98; TA 98, 200 μM) | Fold increase (over baseline) (TA 98; [2]) | inhibition at 10 µM (CYP 2D6; % Mean) | mutagenic activity (TA 98; TA 98, 200 μM) | inhibition at 10 µM (CYP 2D6; % (individual replicates)) | precipitate in strain-compound-GM medium mixture [1]
1 | CC(C)c1nccn1CC(=O)Nc1ccc(-c2ccccc2)cc1 [Compound 2] | enhanced Ub-charging | no mutagenic potential | 0.3 | 1 ± 1.41 revertant colonies per plate | 0.2 | 0.5 ± 0.7 revertant colonies per plate | 0.5 ± 0.7 revertant colonies per plate | 0.2 | 17.3% | – | – | –
2 | Cc1nc2c(c(N3CCCN(Cc4ccccc4)CC3)n1)CCCC2 [Compound 31] | enhanced Ub-charging | no mutagenic potential | 0.2 | 0.5 ± 0.7 revertant colonies per plate | 0.3 | 1 ± 0 revertant colonies per plate | 1 ± 1.41 revertant colonies per plate | 0.3 | 60.6% | – | – | –
3 | CC(C)(C)Sc1ccc(NC(=O)Cn2ccnc2)cc1 [Compound 3] | enhanced Ub-charging | – | 0.46 | 1.5 ± 0.7 revertant colonies per plate | 0.2 | 0.5 ± 0.7 revertant colonies per plate | >1000 revertant colonies per plate | >312 | 99.7% | mutagenic activity | 98.9% | –
4 | O=C(Cn1ccnc1-c1ccccn1)Nc1ccc(-c2ccccc2)cc1 [Compound 4] | enhanced Ub-charging | no mutagenic potential | 0.46 | 1.5 ± 0.7 revertant colonies per plate | 0 | 0 ± 0 revertant colonies per plate | 0 ± 0 revertant colonies per plate | 0 | 18.4% | – | – | Precipitate was observed
5 | O=C(Cn1cnc2c1CCCC2)Nc1ccc(-c2ccccc2)cc1 [Compound 1] | enhanced Ub-charging | no mutagenic potential | 0.46 | 1.5 ± 0.7 revertant colonies per plate | 0.2 | 0.5 ± 0.7 revertant colonies per plate | 0 ± 0 revertant colonies per plate | 0 | 17% | – | 18.5% | Precipitate was observed
